Assay results taken from PMC12154214, “Bioactive Peptides from Sodium Caseinate Hydrolysate with High Oral Absorption Regulate Blood Glucose in Type 2 Diabetic Mice via Inhibition of DPP-IV and Stimulation of GLP-1” (Foods, 2025).
Entries after “also recorded” stand apart in the source; their conditions may differ. Read-outs that look alike come from different tables or passages of the source. Values belong to the compound of their own block, whether it stands above or below them. No end group written: not given here.

Legend:
db/db mice = assay: Oral glucose tolerance test (OGTT) in db/db mice; assay type: in vivo; details: week 3, glucose 2 g/kg, 120 min, 1CBR 500 mg/kg/day, sitagliptin 20.5 mg/kg/day, p < 0.05
Protocol: In this study, db/db mice (BKS.Cg-Dock7m+/+Leprdb/JNarl from National Laboratory Animal Center, Taipei, Taiwan) 5 weeks of age and weighing 22–25 g were analyzed. The mice were given the 5001-Laboratory Rodent Diet (LabDiet®, St. Louis, MO, USA), which comprised 57% carbohydrate, 13% fat, and 30% protein by total kcal.
An OGTT was conducted on mice fasted overnight from each group at week 0 and week 3. Blood samples were collected by retro-orbital bleed at 0 to 120 min following a glucose challenge (2 g/kg) to determine glucose levels using a Glucose GOD-PAP kit (Randox Laboratories Ltd., Crumlin, UK).

plasma insulin = assay: Plasma insulin level in db/db mice (ELISA); assay type: in vivo; details: after 3-week treatment, 1CBR 500 mg/kg/day, sitagliptin 20.5 mg/kg/day, untreated group C 6.51
Protocol: (§1) Between the ages of 6 and 8 weeks, the blood glucose concentrations in the mice were monitored weekly. Diabetes was determined in mice when the blood glucose levels surpassed 400 mg/dL after an OGTT test (oral glucose tolerance). The mice were randomly allocated to three groups, each consisting of 13 individuals. The experimental period lasted for 3 weeks. […] Mice were housed in groups of 3–4 per cage. The sample size was determined based on previous studies and ethical considerations (3Rs principle) to achieve adequate statistical power without excessive animal use. […] This dose was also within the effective range reported for other food-derived bioactive protein hydrolysates in rodent models.
(§2) At week 3, blood samples were obtained from all mice into EDTA-treated chilled tubes and then centrifuged at 3000× g for 15 min. The supernatant was kept on ice for up to 3 h for further analysis. Plasma insulin levels and DPP-IV activity were determined using an insulin ELISA kit (Mercodia AB, Uppsala, Sweden) and a DPP-IV assay kit (Enzo Inc., Farmingdale, NY, USA), respectively. Plasma total GLP-1 levels were measured using the glucagon-like peptide-1 (total) kit from RayBiotech Inc. (Norcross, GA, USA), while active GLP-1 levels were assessed with the active GLP-1 kit from Millipore Corp. (Billerica, MA, USA), each from a different supplier.

active GLP-1 = assay: Plasma active GLP-1 level in db/db mice; assay type: in vivo; details: after 3-week treatment, 1CBR 500 mg/kg/day, sitagliptin 20.5 mg/kg/day, group C 5.22
Protocol: as §1, §2

total GLP-1 = assay: Plasma total GLP-1 level in db/db mice; assay type: in vivo; details: after 3-week treatment, 1CBR 500 mg/kg/day, sitagliptin 20.5 mg/kg/day
Protocol: as §1, §2

NCI-H716 cells = assay: In vitro GLP-1 secretion in NCI-H716 cells; assay type: cell-based, human; details: NCI-H716 cells, 2.0, 2.5 and 3.0 mM, 3 h
Protocol: (§3) NCI-H716 and STC-1 enteroendocrine cell lines are widely conducted to investigate the mechanisms of GLP-1 expression. The STC-1 and NCI-H716 cell lines in this study were sourced from Bioresource Collection and Research (BCRC, Hsinchu, Taiwan). STC-1 cells were seeded in 12-well plates at 2 × 10^6 cells/mL, while NCI-H716 cells were seeded in Matrigel-coated 12-well plates at 2 × 10^5 cells/mL. Upon reaching 85% confluence, the supernatants were replaced with HEPES buffer for STC-1 and RPMI-1640 buffer without FBS for NCI-H716. […] After incubating at 37 °C with 5% CO2 for 3 h, the supernatants were harvested and assessed for GLP-1 levels using the active glucagon-like peptide-1 kit from Millipore Corp. (Billerica, MA, USA).

STC-1 cells = assay: In vitro GLP-1 secretion in STC-1 cells; assay type: cell-based; details: STC-1 cells, 2.0, 2.5 and 3.0 mM, 3 h
Protocol: as §3

DPP-IV = molecular target: T1, DPP-IV (Sus scrofa, UniProt P22411); assay: In vitro DPP-IV inhibition assay; assay type: biochemical, porcine; details: synthesized peptides, in vitro enzymatic assay
T1 construct: purchased Sigma-Aldrich D7052; host or cells: porcine kidney (tissue-derived)
T1 sequence (P22411 whole entry): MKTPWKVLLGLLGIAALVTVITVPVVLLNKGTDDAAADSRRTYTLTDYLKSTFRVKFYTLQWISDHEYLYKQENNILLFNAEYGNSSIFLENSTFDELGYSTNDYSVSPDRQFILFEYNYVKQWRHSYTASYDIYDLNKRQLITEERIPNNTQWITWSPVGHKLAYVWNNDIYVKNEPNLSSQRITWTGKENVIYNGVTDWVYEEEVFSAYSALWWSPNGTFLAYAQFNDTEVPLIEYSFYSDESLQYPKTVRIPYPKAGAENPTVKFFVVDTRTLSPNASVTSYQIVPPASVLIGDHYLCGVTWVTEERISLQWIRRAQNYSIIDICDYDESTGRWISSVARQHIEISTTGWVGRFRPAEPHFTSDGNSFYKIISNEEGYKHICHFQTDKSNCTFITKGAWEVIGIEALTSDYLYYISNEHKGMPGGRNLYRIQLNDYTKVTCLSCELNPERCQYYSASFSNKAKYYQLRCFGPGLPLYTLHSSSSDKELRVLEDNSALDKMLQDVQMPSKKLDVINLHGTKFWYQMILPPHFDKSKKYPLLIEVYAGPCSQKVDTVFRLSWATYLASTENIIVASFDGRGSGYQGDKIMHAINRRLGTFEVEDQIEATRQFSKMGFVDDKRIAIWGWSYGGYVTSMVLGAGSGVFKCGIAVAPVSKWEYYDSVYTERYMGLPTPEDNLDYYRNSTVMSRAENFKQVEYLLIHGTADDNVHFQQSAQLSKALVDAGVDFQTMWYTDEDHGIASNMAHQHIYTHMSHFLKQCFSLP
Excerpt: Sodium caseinate was obtained from Gemfont Inc. (Taipei, Taiwan). Bromelain, derived from pineapple stem, was obtained from STBIO Media Inc. (New Taipei, Taiwan). Dipeptidyl peptidase-IV (DPP-IV; D7052, sourced from porcine kidney), Gly-Pro-p-nitroanilide, HEPES sodium salt (H3784), and RPMI-1640 medium (R8758) were obtained from Sigma-Aldrich (St. Louis, MO, USA). The remaining chemicals and reagents were of analytical grade and were available from commercial suppliers.
In this study, 1CBR was purified by RP-HPLC using a Model L-2130 HPLC system (Hitachi Ltd., Katsuda, Japan). Afterward, 2 mg of the lyophilized hydrolysate fraction was reconstituted in 1 mL of ddH2O, and 60 μL of the resulting solution was subjected to injection onto a ZORBAX Eclipse Plus C18 column (4.6 mm × 250 mm, Agilent Tech. Inc., Santa Clara, CA, USA) for analysis. A gradient of acetonitrile, ranging from 5% to 60% over 60 min, was applied in 0.1% TFA at 0.7 mL/min. Peptides were monitored at 220 nm. After collection, each fraction was lyophilized and stored in a desiccator for future use. The fractions were then re-dissolved in 100 mM Tris buffer (pH 7.0) to achieve a 1 mg/mL concentration and were evaluated for in vitro DPP-IV inhibitory activity. The assay for DPP-IV inhibition was conducted following the procedure outlined in our previous study.
The selected peptides were generated through Fmoc-based solid-phase peptide synthesis using an automated synthesizer (CS 136, CS Bio Co., San Carlos, CA, USA). Their structural integrity and purity were confirmed via RP-HPLC-MS/MS analysis. To assess their inhibitory potential against DPP-IV, the IC50 values were determined through in vitro enzymatic assays. […]

[1] = design: species or system Sprague–Dawley rats; details: rat, in vivo; for AR30 (absorption ratio at 30 min) / AR90 (absorption ratio at 90 min) / AUC / Cmax / Fractional absorption / Tmax / half-life: po, 16 mg/kg
Excerpt: In this study, GPFPLPD and […] peptides were synthesized and prepared for the in vivo absorption study as outlined in Section 2.4. The experiment involved ten male Sprague–Dawley rats (LASCO, Taipei, Taiwan), each 6 weeks old and weighing between 230 and 250 g. Prior to the experiment, the rats were allowed a 7-day acclimatization period, during which they were fed a 5012-Rat Diet (LabDiet®, St. Louis, MO, USA), consisting of 60% carbohydrates, 13% fat, and 27% protein based on total caloric content. The rats were randomly assigned to two groups (5 rats per group) and orally administered a single dose of either GPFPLPD or […] peptide at 16 mg/kg body weight.
Overnight-fasted rats were administered the peptides, and blood samples were collected from the tail vein at 0, 30, 60, 90, and 180 min post-administration. To obtain plasma, the samples were centrifuged at 3000× g for 15 min at 4 °C. A 500 µL aliquot of plasma was then combined with an equal volume of acetonitrile, followed by additional centrifugation at 1200× g for 10 min at 4 °C to precipitate high-molecular-weight proteins. The resulting supernatant (20 µL) was analyzed via RP-HPLC under the conditions outlined in Section 2.4. Peptide concentrations were quantified using calibration curves from peptide standards prepared in 50% (v/v) acetonitrile (Figure S4). The estimated blood volume of male rats was 6.86 mL per 100 g of body weight.
The pharmacokinetic parameters, including the half-life (t1/2), area under the plasma drug concentration–time curve (AUC), time-to-peak concentration (Tmax), and peak concentration (Cmax), were directly determined and analyzed. The absorption ratio (ARt; %) was defined as the percentage of the administered peptide dose (16 mg/kg BW) present in plasma, calculated as the product of peptide concentration and blood volume at each time point. The AUC method was also employed to quantify peptide absorption. The fractional absorption (%) of orally administered peptides was calculated using the following formula [23]: Fractional absorption (%)=ln2/t1/2×calculated oral AUC×plasma volume/oral dose×100

[2] = MALDI-TOF/TOF check of intact peptide in rat plasma; assay type: in vivo, Sprague–Dawley rats; details: 60 min post-administration, oral 16 mg/kg BW
Protocol: A 0.6 μL aliquot of peptide solution (1 mg/mL) was mixed with an equal volume of saturated α-cyano-4-hydroxycinnamic acid matrix and then air-dried on the target plate. The dried sample was subsequently analyzed using MALDI-TOF/TOF MS in positive ion reflection mode under a 20 kV accelerating voltage. Mass spectra were generated by averaging 200 laser shots within an m/z range of 200–2500 Da. Tandem mass spectrometry (MS/MS) was performed to determine peptide sequences, with data processed using BioTools software (Version 3.2, Bruker Daltonics, Billerica, MA, USA).
To verify that the peaks observed in the RP-HPLC chromatogram corresponded to the intact peptides GPFPLPD and […], plasma samples from rats with or without peptide administration were analyzed by MALDI-TOF/TOF, as described in Section 2.4.2.

[3] = design: method as in PMID 25387326; details: adult Wistar rats, 40 mg/kg BW; cited from earlier work
[4] = design: method as in PMID 38581395; details: rat model, cited from earlier work
[5] = design: method as in PMID 29732892; details: rats, single oral dose 100 mg/kg body weight; cited from earlier work

Compound: N[C@@H](CC(=O)N1CCn2c(nnc2C(F)(F)F)C1)Cc1cc(F)c(F)cc1F [sitagliptin]
OGTT AUC compared to group C (db/db mice): significantly lower AUC values | plasma insulin level (plasma insulin): 11.31 µg/L | plasma active GLP-1 level (active GLP-1): 12.29 pM | plasma total GLP-1 level (total GLP-1): unchanged | effect on GLP-1 secretion (in words) (NCI-H716 cells): did not influence GLP-1 secretion; also recorded: failed to induce GLP-1 secretion | effect on GLP-1 secretion (in words) (STC-1 cells): did not influence GLP-1 secretion; also recorded: failed to induce GLP-1 secretion

Compound: APDSGNFR
IC50 (DPP-IV): 73.1 µM | oral bioavailability [1]: 19.12% | AR30 (absorption ratio at 30 min) [1]: 12.74 ± 2.17% | AR90 (absorption ratio at 90 min) [1]: 12.40 ± 1.97% | AUC [1]: 66600 ng·h/mL | Cmax [1]: 44600 ± 9330 ng/mL | Fractional absorption [1]: 10.8% | Tmax [1]: 1 h | half-life [1]: 1.82 h | structural integrity in plasma (MALDI-TOF/TOF) [2]: remained structurally intact

Compound: HLPLP
Cmax [3]: 20.1 ng/mL | absolute bioavailability [3]: 5.18%

Compound: IRW
elimination half-life ([4]; intravenous injection): 0.475 h | elimination half-life ([4]; oral administration): 0.132 h | bioavailability [4]: 11.7%

Compound: WDHHAPQLR [antioxidative peptide]
bioavailability [5]: 3.56% | elimination half-life [5]: 1.19 h

More lines, now with the values ahead:

IC50 (DPP-IV): 642 µM
Compound: GGHLFFC [GGHLFFC]

IC50 (DPP-IV): 839 µM
Compound: GGKPSSMT

IC50 (DPP-IV): 99.1 µM | oral bioavailability [1]: 11.28% | AR30 (absorption ratio at 30 min) [1]: 10.21 ± 1.48% | AR90 (absorption ratio at 90 min) [1]: 6.52 ± 0.66% | AUC [1]: 40200 ng·h/mL | Cmax [1]: 26100 ± 4120 ng/mL | Fractional absorption [1]: 7.2% | Tmax [1]: 1 h | half-life [1]: 1.65 h | structural integrity in plasma (MALDI-TOF/TOF) [2]: remained structurally intact
Compound: GPFPLPD [GPFPLPD]
